Key:
[1] = test system: CH1/PA-1 (ovarian teratocarcinoma) cells; assay: MTT cytotoxicity assay, CH1/PA-1 monolayer; type: cell-based, human; conditions: exposure time 96 h, mean ± SD
Method: (§1) CH1/PA-1 (ovarian teratocarcinoma), SW480 (colon carcinoma) and A549 (non-small cell lung cancer) cells were maintained as described in the reference. IMR-90 human fetal lung fibroblasts (from the European Collection of Authenticated Cell Cultures, Porton Down, Salisbury, UK) were cultured in Stable Cell^TM DMEM/F12 supplemented with 0.01 mg/mL human recombinant insulin (both purchased from Sigma-Aldrich) and 10% fetal bovine serum (FBS, BioWest, Nuaillé, France). Human colon carcinoma cell lines HCT116 and HT29 (both kindly provided by the Institute of Cancer Research, Department of Medicine I, Medical University of Vienna, Austria) were cultured in McCoy’s 5a medium supplemented with 4 mM L-glutamine (both purchased from Sigma-Aldrich) and 10% FBS. MCF-7 human breast adenocarcinoma cells (kindly provided by M. Ogris, Department of Pharmaceutical Sciences, University of Vienna, Austria) were maintained in DMEM (high glucose) supplemented with 4 mM L-glutamine, 0.1 mg/mL human insulin (all purchased from Sigma-Aldrich) and 10% FBS. All cell lines were grown as monolayers in 75 cm^2 culture flasks (CytoOne, Starlab, Hamburg, Germany) at 37 °C in a humidified atmosphere containing 5% CO2.
Exponentially growing cells were plated into 96-well microculture plates (CytoOne, tissue culture treated, Starlab, Hamburg, Germany) in densities of 1 × 10^3 CH1/PA-1, 2 × 10^3 SW480, 3 × 10^3 A549 and 7 × 10^3 IMR-90 cells per well (each in 100 µL). After a 24 h preincubation, drugs were added in serial dilution to give a final volume of 200 µL/well and exposed for 96 h. At the end of the exposure, the drug solutions were replaced by 100 µL RPMI 1640/MTT mixture (7:1 ratio). MTT (3-(4,5-dimethylthiazol-2-yl)-2,5-diphenyl-2H-tetrazolium bromide), (Acros Organics, Geel, Belgium) solution was prepared in phosphate-buffered saline (5 mg/mL) and mixed with RPMI1640 medium supplemented with 4 mM L-glutamine (both from Sigma-Aldrich) and 10% FBS. After 4 h incubation, the formazan crystals were solubilized in 150 µL of DMSO per well. Absorbance was measured at 550 nm (and at 690 nm as a reference) with a microplate reader (ELx808, BioTek, Winoosky, VT, USA) and Gen5^TM 3.08 software (BioTek). The 50% inhibitory concentrations (IC50) relative to untreated controls were interpolated from concentration-effect curves. At least three biologically and technically independent experiments were performed.

HCT116 cells [2] = assay: Annexin V-FITC/PI apoptosis assay, HCT116; type: cell-based, human; conditions: HCT116, 24 h; for ∑apoptotic cells [%]: sum of early and late
[3] = Solubility in PBS (1% DMSO); type: physicochemical
Method: Stock solutions in DMSO of compounds 1–10 were utilized to determine the solubility in PBS by adding 1 vol% of the stock solution to a suitable amount of PBS. […] UV/Vis data were recorded on a Perkin Elmer Lambda 650 UV/Vis Spectrophotometer with a Peltier element for temperature control.

HCT116 cells [4] = assay: Resazurin assay, HCT116 2D monolayer; type: cell-based, human; conditions: 96 h
Method: as §1
(§2) For the resazurin assay in monolayer cultures, cells were seeded into 96-well microculture plates (CytoOne, tissue culture treated, Starlab, Hamburg, Germany) in densities of 2 × 10^3 HCT116, 2 × 10^3 HT29 and 4 × 10^3 MCF-7 cells per well (each in 100 µL). For tests in 3D cultures, spheroids were grown as described above. After 24 h (for monolayers) or 4 days (for spheroids) the test compounds in the appropriate medium were added in serial dilution to the plates to obtain a total volume of 200 µL/well. Wells without cells, containing medium and resazurin (Alfa Aesar, Thermo Fisher, Kandel, Germany) solution were used as blanks. After 96 h exposure 20 µL of the resazurin solution (440 µM) were added to each well, followed by a 4 h (2D) or 12 h (3D) incubation period. Resorufin fluorescence was quantified at 530 nm (and a reference wavelength of 620 nm) by using a microplate reader (Synergy HT, BioTek) with Gen5^TM 3.10 software (BioTek).

[5] = test system: HT29 multicellular tumor spheroids; assay: Resazurin assay, HT29 3D spheroids; type: cell-based, human; conditions: 96 h; for IC50: spheroids
Method: as §1
For growing multicellular tumor spheroids, 400 HCT116, 400 HT29 or 800 MCF-7 cells per well were plated into round-bottom ultra-low attachment 96-well plates (Corning, Glendale, AZ, USA) in the media described above and incubated at 37 °C for 96 h. Spheroids were treated with 10 µM of the two most cytotoxic compounds 3 and 4 for another 96 h. The diameters of the spheroids were measured with Cell^F software under a CKX41 Olympus microscope before treatment and in constant daily intervals over the 96 h treatment period. For statistical analysis the t-test with Welsh’s correction was implemented in GraphPad Prism software (Version 6.01).
as §2

HT29 cells = assay: Annexin V-FITC/PI apoptosis assay, HT29; conditions: HT29, 24 h; for ∑apoptotic cells [%]: sum of early and late
MCF-7 cells = assay: Resazurin assay, MCF-7 2D monolayer; type: cell-based, human; conditions: 96 h
Method: as §1, §2

Compound | IC50 [1] [µM] | early apoptotic cells [%] AV+ / PI- (HCT116 cells [2]; 200 µM) [%] | late apoptotic cells [%] AV+ / PI+ (HCT116 cells [2]; 200 µM) [%] | necrotic cells [%] AV- / PI+ (HCT116 cells [2]; 200 µM) [%] | viable cells [%] AV- / PI- (HCT116 cells [2]; 200 µM) [%] | Solubility in PBS (1% DMSO) [3] [µg/mL] | IC50 (HCT116 cells [4]) [µM] | ratio 3D/2D of IC50 values, HT29 [5] | IC50 [5] [µM] | early apoptotic cells [%] AV+ / PI- (HT29 cells; 200 µM) [%] | late apoptotic cells [%] AV+ / PI+ (HT29 cells; 200 µM) [%] | necrotic cells [%] AV- / PI+ (HT29 cells; 200 µM) [%] | viable cells [%] AV- / PI- (HT29 cells; 200 µM) [%] | ∑apoptotic cells [%] (HT29 cells; 200 µM) | IC50 (MCF-7 cells) [µM] | early apoptotic cells [%] AV+ / PI- (HCT116 cells [2]; 2 µM) [%] | late apoptotic cells [%] AV+ / PI+ (HCT116 cells [2]; 2 µM) [%] | necrotic cells [%] AV- / PI+ (HCT116 cells [2]; 2 µM) [%] | viable cells [%] AV- / PI- (HCT116 cells [2]; 2 µM) [%] | ∑apoptotic cells [%] (HCT116 cells [2]; 2 µM) | also measured
Cc1occc(=S)c1[O-].F[P-](F)(F)(F)(F)F.[W+4].c1cc[cH-]c1.c1cc[cH-]c1 [Compound 2, Bis(η^5-cyclopentadienyl)[2-methyl-3-(oxo-κO)-4-(1H)-pyran-4-thionato-κS]tungsten(IV) hexafluorophosphate] | 24 ± 3 | 7.2 ± 1.9 | 27.1 ± 17.6 | 2.2 ± 0.2 | 63.5 ± 18.6 | 250 | 98 ± 12 | > 3.8 | > 200 | 3.9 ± 1.8 | 6.1 ± 1.0 | 3.3 ± 2.4 | 86.8 ± 2.4 | 10 | 66 ± 12 |  |  |  |  |  | 
F[P-](F)(F)(F)(F)F.O=c1c([O-])c(-c2ccc(Cl)cc2)oc2ccccc12.[W+4].c1cc[cH-]c1.c1cc[cH-]c1 [Compound 3, Bis(η^5-cyclopentadienyl)[2-(4-chlorophenyl)-3-(oxo-κO)-4(H)-chromen-4-oato-κO]tungsten(IV) hexafluorophosphate] | 2.7 ± 0.4 | 0.0 ± 0.0 | 94.1 ± 4.8 | 5.5 ± 4.9 | 0.4 ± 0.3 | 30 | 9.2 ± 1.4 | 5.1 | 86 ± 2 | 0.8 ± 0.5 | 82.2 ± 4.1 | 14.9 ± 2.8 | 2.2 ± 1.3 |  | 6.5 ± 1.8 | 4.6 ± 1.7 | 13.5 ± 0.6 | 4.3 ± 0.7 | 77.7 ± 1.6 | 18.1 | early apoptotic cells [%] AV+ / PI- (HCT116 cells [2]; 20 µM): 5.0 ± 0.9%; late apoptotic cells [%] AV+ / PI+ (HCT116 cells [2]; 20 µM): 12.1 ± 2.9%; necrotic cells [%] AV- / PI+ (HCT116 cells [2]; 20 µM): 2.5 ± 0.6%; viable cells [%] AV- / PI- (HCT116 cells [2]; 20 µM): 80.4 ± 2.6%; ∑apoptotic cells [%] (HCT116 cells [2]; 20 µM): 17.1%; early apoptotic cells [%] AV+ / PI- (HCT116 cells [2]; 100 µM): 3.3 ± 1.1%; late apoptotic cells [%] AV+ / PI+ (HCT116 cells [2]; 100 µM): 75.5 ± 5.6%; necrotic cells [%] AV- / PI+ (HCT116 cells [2]; 100 µM): 12.8 ± 0.2%; viable cells [%] AV- / PI- (HCT116 cells [2]; 100 µM): 8.6 ± 4.3%; ∑apoptotic cells [%] (HCT116 cells [2]; 100 µM): 78.8%; early apoptotic cells [%] AV+ / PI- (HT29 cells; 2 µM): 4.6 ± 4.1%; late apoptotic cells [%] AV+ / PI+ (HT29 cells; 2 µM): 7.2 ± 3.8%; necrotic cells [%] AV- / PI+ (HT29 cells; 2 µM): 5.1 ± 4.2%; viable cells [%] AV- / PI- (HT29 cells; 2 µM): 83.0 ± 3.8%; ∑apoptotic cells [%] (HT29 cells; 2 µM): 11.8%; early apoptotic cells [%] AV+ / PI- (HT29 cells; 20 µM): 8.6 ± 2.5%; late apoptotic cells [%] AV+ / PI+ (HT29 cells; 20 µM): 11.1 ± 1.0%; necrotic cells [%] AV- / PI+ (HT29 cells; 20 µM): 5.4 ± 1.2%; viable cells [%] AV- / PI- (HT29 cells; 20 µM): 74.9 ± 3.3%; ∑apoptotic cells [%] (HT29 cells; 20 µM): 19.7%
F[P-](F)(F)(F)(F)F.[O-]c1c(-c2ccc(Cl)cc2)oc2ccccc2c1=S.[W+4].c1cc[cH-]c1.c1cc[cH-]c1 [Compound 4, Bis(η^5-cyclopentadienyl)[2-(4-chlorophenyl)-3-(oxo-κO)-4(H)-chromen-4-thionato-κS]tungsten(IV) hexafluorophosphate] | 1.6 ± 0.5 |  |  |  |  | 10 | 6 ± 0.9 | 5.6 | 31 ± 6 |  |  |  |  |  | 2.7 ± 0.7 | 2.3 ± 0.0 | 8.0 ± 6.2 | 2.4 ± 1.5 | 87.3 ± 7.8 | 10.3 | early apoptotic cells [%] AV+ / PI- (HCT116 cells [2]; 20 µM): 1.9 ± 0.4%; late apoptotic cells [%] AV+ / PI+ (HCT116 cells [2]; 20 µM): 31.1 ± 4.7%; necrotic cells [%] AV- / PI+ (HCT116 cells [2]; 20 µM): 11.5 ± 1.2%; viable cells [%] AV- / PI- (HCT116 cells [2]; 20 µM): 55.5 ± 4.8%; early apoptotic cells [%] AV+ / PI- (HT29 cells; 2 µM): 3.7 ± 3.2%; late apoptotic cells [%] AV+ / PI+ (HT29 cells; 2 µM): 4.8 ± 1.3%; necrotic cells [%] AV- / PI+ (HT29 cells; 2 µM): 5.4 ± 5.0%; viable cells [%] AV- / PI- (HT29 cells; 2 µM): 86.2 ± 3.1%; ∑apoptotic cells [%] (HT29 cells; 2 µM): 8.5%; early apoptotic cells [%] AV+ / PI- (HT29 cells; 20 µM): 16.8 ± 5.2%; late apoptotic cells [%] AV+ / PI+ (HT29 cells; 20 µM): 19.5 ± 2.0%; necrotic cells [%] AV- / PI+ (HT29 cells; 20 µM): 13.3 ± 5.1%; viable cells [%] AV- / PI- (HT29 cells; 20 µM): 50.4 ± 4.1%
F[P-](F)(F)(F)(F)F.O=C([O-])c1ccccn1.[W+4].c1cc[cH-]c1.c1cc[cH-]c1 [Compound 5, Bis(η^5-cyclopentadienyl)[2-(carboxylato-κO)-pyridine-κN]tungsten(IV) hexafluorophosphate] | > 200 | 2.0 ± 1.1 | 2.9 ± 0.7 | 2.4 ± 1.2 | 92.7 ± 1.3 | 180 | > 200 |  | > 200 | 0.9 ± 0.7 | 5.3 ± 6.9 | 2.3 ± 1.5 |  | 6.2 | > 200 |  |  |  |  |  | ∑apoptotic cells [%] (HCT116 cells [2]; 200 µM): 4.9%
Cc1c([O-])c(=O)ccn1C.F[P-](F)(F)(F)(F)F.[W+4].c1cc[cH-]c1.c1cc[cH-]c1 [Compound 6, Bis(η^5-cyclopentadienyl)[1,2-dimethyl-3-(oxo-κO)-4-(1H)-pyridonato-κO]tungsten(IV) hexafluorophosphate] | > 200 | 5.0 ± 1.3 | 17.2 ± 122 | 3.1 ± 0.7 | 74.7 ± 14.1 | 1200 | > 200 |  | > 200 | 4.3 ± 1.8 | 4.2 ± 0.6 | 2.4 ± 0.7 | 89.1 ± 0.4 | 8.5 | 172 ± 45 |  |  |  |  |  | ∑apoptotic cells [%] (HCT116 cells [2]; 200 µM): 22.2%

Reference: paper PMC10384408, “Anticancer Tungstenocenes with a Diverse Set of (O,O–), (O,S–) and (O,N–) Chelates—A Detailed Biological Study Using an Improved Evaluation via 3D Spheroid Models” (Pharmaceutics, 2023)
